Here are results for 29 compounds from patent US11077100B2, “Tetrahydroquinoline derivatives as P2X7 receptor antagonists” (RaQualia Pharma Inc., priority 2017, dated 2021).

The target of assay [1] is human P2X7 (Homo sapiens (Human), UniProt Q99572). Nature of the assay: Human P2X7 functional assay (Ca2+ influx, Fluo-4, FDSS). Format: cell-based. Particulars: antagonistic activity with respect to the human P2X7 receptor; BzATP final concentration 80 microM. Summed up:
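HEK293 cells stably expressing C-terminally FLAG-tagged human P2X7, loaded with Fluo-4. Compounds were preincubated for 10 min at room temperature, then 80 μM BzATP (final) was added and Ca2+ fluorescence read at 540 nm (480 nm excitation) by FDSS. IC50 values come from 7-point curves, duplicate wells.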

Assay [2] addresses rat P2X7 (Rattus norvegicus (Rat), UniProt Q64663). As to the kind of experiment: Rat P2X7 functional assay (Ca2+ influx, Fluo-4, FDSS). Format: cell-based. Particulars: HEK293 cells stably expressing rat P2X7; BzATP final 10 microM; 7-point dose-response; read-out: Antagonistic activities with respect to the rat P2X7 receptor (IC50). Summed up: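 HEK293 cells stably expressing rat P2X7 (5,000/well, plated 24 h before) loaded with Fluo-4; compounds preincubated 10 min at room temperature, then Ca2+ rise after 10 microM BzATP (final) read on FDSS (480/540 nm). IC50 from 7-point curves, duplicate wells.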

Each structure is given as a SMILES string.

Chain of rat P2X7 (Q64663 whole entry): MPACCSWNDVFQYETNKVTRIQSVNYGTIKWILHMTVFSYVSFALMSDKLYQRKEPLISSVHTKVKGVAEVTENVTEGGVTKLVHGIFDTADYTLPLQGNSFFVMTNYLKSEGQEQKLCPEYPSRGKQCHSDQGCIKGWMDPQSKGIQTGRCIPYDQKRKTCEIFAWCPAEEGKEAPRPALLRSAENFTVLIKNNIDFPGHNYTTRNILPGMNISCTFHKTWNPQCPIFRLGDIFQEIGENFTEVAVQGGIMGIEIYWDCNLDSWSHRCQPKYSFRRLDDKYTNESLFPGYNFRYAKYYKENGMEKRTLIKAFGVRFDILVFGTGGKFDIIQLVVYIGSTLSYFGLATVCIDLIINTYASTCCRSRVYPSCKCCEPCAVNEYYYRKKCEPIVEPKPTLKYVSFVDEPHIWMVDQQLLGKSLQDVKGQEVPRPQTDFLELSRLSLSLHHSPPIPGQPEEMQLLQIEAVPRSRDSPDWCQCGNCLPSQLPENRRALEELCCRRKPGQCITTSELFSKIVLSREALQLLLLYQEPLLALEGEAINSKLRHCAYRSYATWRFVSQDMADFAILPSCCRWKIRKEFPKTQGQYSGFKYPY
Chain of human P2X7 (Q99572 whole entry): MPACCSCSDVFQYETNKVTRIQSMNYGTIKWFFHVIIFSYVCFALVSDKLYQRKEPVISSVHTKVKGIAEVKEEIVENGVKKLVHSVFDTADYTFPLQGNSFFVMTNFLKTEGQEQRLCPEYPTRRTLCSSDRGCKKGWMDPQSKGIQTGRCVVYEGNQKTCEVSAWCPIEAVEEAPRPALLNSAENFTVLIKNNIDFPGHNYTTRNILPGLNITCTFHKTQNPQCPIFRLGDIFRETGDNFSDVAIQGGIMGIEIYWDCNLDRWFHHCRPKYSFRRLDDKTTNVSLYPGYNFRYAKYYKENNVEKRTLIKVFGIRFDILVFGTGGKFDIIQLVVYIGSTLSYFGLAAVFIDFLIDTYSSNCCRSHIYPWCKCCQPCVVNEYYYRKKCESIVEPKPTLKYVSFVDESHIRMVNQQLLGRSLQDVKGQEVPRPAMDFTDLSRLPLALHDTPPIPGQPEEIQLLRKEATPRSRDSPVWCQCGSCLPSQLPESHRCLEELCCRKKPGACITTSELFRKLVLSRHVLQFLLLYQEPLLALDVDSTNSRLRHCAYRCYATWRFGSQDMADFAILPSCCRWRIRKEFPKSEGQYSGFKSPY

As for `O=C(NCc1ccccc1Cl)[C@]1(F)CC[C@H](O)c2ncccc21` [Example 195, (5S,8S)-N-(2-chlorobenzyl)-5-fluoro-8-hydroxy-5,6,7,8-tetrahydroquinoline-5-carboxamide], the results for the half-maximal inhibitory concentration (IC50) in assay [1] and in assay [2] were less than 50 nM and less than 1000 nM, respectively.
The matching figures for `CO[C@H]1CC[C@@](F)(C(=O)NCc2ccc(Cl)cc2F)c2cccnc21` [Example 340, (5S,8S)-N-(4-chloro-2-fluorobenzyl)-5-fluoro-8-methoxy-5,6,7,8-tetrahydroquinoline-5-carboxamide]: less than 50 nM and less than 1000 nM.
For `C[C@]1(O)CC[C@@](F)(C(=O)NCc2ccc(F)c(F)c2F)c2cccnc21` [Example 258, (5S,8S)-5-fluoro-8-hydroxy-8-methyl-N-(2,3,4-trifluorobenzyl)-5,6,7,8-tetrahydroquinoline-5-carboxamide], the IC50 (commonly the point on the concentration scale where inhibition reaches its midpoint) was less than 50 nM in assay [1] and less than 1000 nM in assay [2].
The matching figures for `C[C@]1(O)CC[C@@](F)(C(=O)NCc2c(Cl)cc(F)cc2CO)c2cccnc21` [Example 262, (5S,8S)-N-(2-chloro-4-fluoro-6-(hydroxymethyl)benzyl)-5-fluoro-8-hydroxy-8-methyl-5,6,7,8-tetrahydroquinoline-5-carboxamide]: less than 50 nM and less than 1000 nM.
For `O=C(NCc1ccc(F)c(F)c1Cl)[C@@H]1CC[C@H](O)c2ncccc21` [Example 82, (5R,8S)-N-(2-chloro-3,4-difluorobenzyl)-8-hy-droxy-5,6,7,8-tetrahydro-quinoline-5-carboxamide] the same measures were less than 50 nM and less than 1000 nM.
The matching figures for `O=C1CC[C@@](F)(C(=O)NCc2cccc(F)c2Cl)c2cccnc21` [Example 250, (S)-N-(2-chloro-3-fluorobenzyl)-5-fluoro-8-oxo-5,6,7,8-tetrahydro-quinoline-5-carboxamide]: 101 to 300 nM and less than 1000 nM.
`O=C(NCc1ccc(F)cc1Cl)[C@]1(F)CC[C@@H](O)c2ncccc21` [Example 107, (5S,8R)-N-(2-chloro-4-fluorobenzyl)-5-fluoro-8-hydroxy-5,6,7,8-tetrahydroquinoline-5-carboxamide]: the half-maximal inhibitory concentration (IC50) in assay [1] is 101 to 300 nM; in assay [2] it was less than 1000 nM.
The matching figures for `O=C1CC[C@@](F)(C(=O)NCc2cccc(Cl)c2Cl)c2cccnc21` [Example 252, (S)-N-(2,3-dichloro-benzyl)-5-fluoro-8-oxo-5,6,7,8-tetrahydroquinoline-5-carboxamide]: less than 50 nM and less than 1000 nM.
For `Cc1cc(Cl)cc(Cl)c1CNC(=O)C1(F)CCC(O)(CN(C)C)c2ncccc21` (stereo not shown) [Example 47, N-(2,4-dichloro-6-meth-ylbenzyl)-8-((dimeth-ylamino)meth-yl)-5-fluoro-8-hydroxy-5,6,7,8-tetrahydroquinoline-5-carboxamide] the same measures were less than 50 nM and less than 1000 nM.
Regarding `O=C(NCc1c(F)cccc1Cl)[C@]1(F)CC[C@H](O)c2ncccc21` [Example 171, (5S,8S)-N-(2-chloro-6-fluorobenzyl)-5-fluoro-8-hydroxy-5,6,7,8-tetrahydroquinoline-5-carboxamide], the IC50 in assay [1] was less than 50 nM; in assay [2], less than 1000 nM.
The matching figures for `C[C@@H](NC(=O)[C@]1(F)CC[C@](O)(CO)c2ncccc21)c1ccc(F)cc1Cl` [Example 328, (5S,8R)-N-((R)-1-(2-chloro-4-fluorophenyl)ethyl)-5-fluoro-8-hydroxy-8-(hydroxymethyl)-5,6,7,8-tetrahydroquinoline-5-carboxamide]: 101 to 300 nM and less than 1000 nM.
With `NCC1(O)CCC(F)(C(=O)NCc2cccc(C(F)(F)F)c2Cl)c2cccnc21` (stereo not shown) [Example 48, 8-(aminomethyl)-N-(2-chloro-3-(trifluoro-methyl)benzyl)-5-fluoro-8-hy-droxy-5,6,7,8-tetra-hydroquinoline-5-carboxamide], the half-inhibitory concentration (IC50) in assay [1] is less than 50 nM; in assay [2], less than 1000 nM.
The matching figures for `O=C(NCc1c(Cl)cc(Cl)cc1C(F)F)[C@]1(F)CC[C@@H](O)c2ncccc21` [Example 115]: less than 50 nM and less than 1000 nM.
For `O=C(NCc1c(Cl)cccc1Cl)[C@]1(F)CC[C@H](O)c2ncccc21` [Example 139, (5S,8S)-N-(2,6-dichlorobenzyl)-5-fluoro-8-hydroxy-5,6,7,8-tetrahydroquinoline-5-carboxamide] the same measures were less than 50 nM and less than 1000 nM.
The matching figures for `O=C(NCc1ccc(F)cc1C(F)(F)F)[C@@H]1CC[C@H](O)c2ncccc21` [Example 76, (5R,8S)-N-(4-fluoro-2-(tri-fluromethyl)benzyl)-8-hydroxy-5,6,7,8-tetra-hydroquinoline-5-carboxamide]: 50 to 100 nM and less than 1000 nM.
In the case of `O=C(NC1COc2ccccc2C1)[C@]1(F)CC[C@H](O)c2ncccc21` (stereo partly drawn) [Example 233, (5S,8S)-N-(chroman-3-yl)-5-fluoro-8-hydroxy-5,6,7,8-tetrahydroquinoline-5-carboxamide], the IC50 is 101 to 300 nM in assay [1] and less than 1000 nM in assay [2].
For `O=C(NCc1ccc(Cl)cc1Cl)[C@@H]1CC[C@@H](O)c2ncccc21` [Example 87, (5R,8R)-N-(2,4-dichloro-benzyl)-8-hydroxy-5,6,7,8-tetrahydroquinoline-5-carboxamide] the same measures were 50 to 100 nM and less than 1000 nM.
For `O=C(NCC1(c2ccc(Cl)cc2Cl)CCOCC1)[C@]1(F)CC[C@H](O)c2ncccc21` [Example 240, (5S,8S)-N-((4-(2,4-dichlorophenyl)tetrahydro-2H-pyran-4-yl)methyl)-5-fluoro-8-hydroxy-5,6,7,8-tetrahydroquinoline-5-carboxamide] the same measures were 301 to 1000 nM and less than 1000 nM.
For `O=C1CO[C@@]2(CC[C@@](F)(C(=O)NCc3ccc(Cl)cc3Cl)c3cccnc32)CN1` [Example 294, (2S,5′S)-N-(2,4-dichlorobenzyl)-5′-fluoro-5-oxo-6′,7′-dihydro-5′H-spiro [morpholine-2,8′-quinoline]-5′-carboxamide] the same measures were 50 to 100 nM and less than 1000 nM.
Consider `O=C1COC[C@@]2(CC[C@@](F)(C(=O)NCc3ccc(Cl)cc3Cl)c3cccnc32)N1` (relative stereo) [Example 62, (3S*,5′S*)-N-(2,4-dichlorobenzyl)-5′-fluoro-5-oxo-6′,7′-dihydro-5′H-spiro[morpholine-3,8′-quinoline]-5′-carboxamide], for which the IC50 in assay [1] is 101 to 300 nM; in assay [2], less than 1000 nM.
`O=C1CC[C@@](F)(C(=O)NCc2cccc(C(F)(F)F)c2Cl)c2cccnc21` [Example 247, (S)-N-(2-chloro-3-(trifluoromethyl)benzyl)-5-fluoro-8-oxo-5,6,7,8-tetrahydroquinoline-5-carboxamide]: the IC50 in assay [1] was less than 50 nM; in assay [2], less than 1000 nM.
For `C[C@]1(O)CC[C@@](F)(C(=O)NCc2c(F)cc(Cl)cc2F)c2cccnc21` [Example 269, (5S,8S)-N-(4-chloro-2,6-difluorobenzyl)-5-fluoro-8-hydroxy-8-methyl-5,6,7,8-tetrahydroquinoline-5-carboxamide] the same measures were less than 50 nM and less than 1000 nM.
`O=C(NCc1c(F)cc(F)cc1Cl)[C@]1(F)CC[C@@](O)(CO)c2ncccc21` [Example 321, (5S,8S)-N-(2-chloro-4,6-difluorobenzyl)-5-fluoro-8-hydroxy-8-(hydroxymethyl)-5,6,7,8-tetrahydroquinoline-5-carboxamide]: the concentration for half-maximal inhibition (IC50) in assay [1] is less than 50 nM; in assay [2] it was less than 1000 nM.
The matching figures for `O=C(NCc1ccc(Br)cc1F)[C@]1(F)CC[C@H](O)c2ncccc21` [Example 182, (5S,8S)-N-(4-bromo-2-fluorobenzyl)-5-fluoro-8-hydroxy-5,6,7,8-tetrahydroquinoline-5-carboxamide]: less than 50 nM and less than 1000 nM.
For `O=C(NCc1ccc(F)c(F)c1F)[C@@H]1CC[C@H](O)c2ncccc21` [Example 72, (5R,8S)-8-hydroxy-N-(2,3,4-trifluorobenzyl)-5,6,7,8-tetrahydroquinoline-5-carboxamide] the same measures were less than 50 nM and less than 1000 nM.
For `CNCC1(O)CCC(F)(C(=O)NCc2cccc(C(F)(F)F)c2Cl)c2cccnc21` (stereo not shown) [Example 49, N-(2-chloro-3-(trifluorometh-yl)benzyl)-5-fluoro-8-hydroxy-8-((methylamino)meth-yl)-5,6,7,8-tetrahydroquinoline-5-carboxamide], the half-inhibitory concentration (IC50) was less than 50 nM in assay [1] and less than 1000 nM in assay [2].
The matching figures for `O=C(NCc1c(Cl)cc(C(F)(F)F)cc1Cl)[C@]1(F)CC[C@H](O)c2ncccc21` [Example 148, (5S,8S)-N-(2,6-dichloro-4-(trifluoromethyl)benzyl)-5-fluoro-8-hydroxy-5,6,7,8-tetrahydroquinoline-5-carboxamide]: less than 50 nM and less than 1000 nM.
For `O=C(NCc1ccc(Cl)cc1F)[C@]1(F)CC[C@H](O)c2ncccc21` [Example 146, (5S,8S)-N-(4-chloro-2-fluorobenzyl)-5-fluoro-8-hydroxy-5,6,7,8-tetrahydroquinoline-5-carboxamide] the same measures were less than 50 nM and less than 1000 nM.
The matching figures for `CO[C@H]1CC[C@@](F)(C(=O)NCc2ccc(C(F)(F)F)cc2Cl)c2cccnc21` [Example 338, (5S,8S)-N-(2-chloro-4-(trifluoromethyl)benzyl)-5-fluoro-8-methoxy-5,6,7,8-tetrahydroquinoline-5-carboxamide]: less than 50 nM and less than 1000 nM.
